In PMC6408443, “Structural determinants of lipid specificity within Ups/PRELI lipid transfer proteins” (Nature Communications, 2019):
Where a chain is given by its changes, count along the chain named.

Assays:
Assay in all cases: liposome lipid transfer, NBD dequenching
Assay type in all cases: biochemical
PRELID1–TRIAP1 [1] = target: T1, PRELID1–TRIAP1 (Homo sapiens, UniProt Q9Y255); details: labelled compound, 12.5 µM donor and 50 µM acceptor liposomes, pH 7.4, 20 °C
T1 construct: N-His-tagged PRELID1 co-expressed with TRIAP1 from pETDuet-1 in E. coli; heterodimer

Ups2 loop-swap variant = target: T2, Ups2 loop-swap variant (Saccharomyces cerevisiae, UniProt P35200); details: labelled compound; 50 nM complex, 12.5 µM donor and 50 µM acceptor liposomes, pH 7.4, 25 °C
T2 construct: N-His Ups2Δ174 carrying the Ups1 Omega loop (residues 60-71), codon-optimised, with Mdm35, E. coli Rosetta-gami2; with Mitochondrial distribution and morphology protein 35
T2 sequence (P35200 1-174): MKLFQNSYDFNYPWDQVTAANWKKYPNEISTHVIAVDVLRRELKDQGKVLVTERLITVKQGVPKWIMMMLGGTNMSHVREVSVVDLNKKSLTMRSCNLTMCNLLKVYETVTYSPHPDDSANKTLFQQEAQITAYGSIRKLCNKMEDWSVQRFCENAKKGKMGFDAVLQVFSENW
T2 sequence (O60200 1-86 partner): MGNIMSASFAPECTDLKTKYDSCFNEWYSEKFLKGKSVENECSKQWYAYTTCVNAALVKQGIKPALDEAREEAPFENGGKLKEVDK

Ups1–Mdm35 [2] = target: T3, Ups1–Mdm35 (Saccharomyces cerevisiae, UniProt Q05776); details: labelled compound, 12.5 µM donor and 50 µM acceptor liposomes, pH 7.4, 20 °C
T3 construct: N-terminally His-tagged Ups1 with Mdm35, E. coli S30 cell-free expression; heterodimer; with Mitochondrial distribution and morphology protein 35
T3 sequence (Q05776 1-175): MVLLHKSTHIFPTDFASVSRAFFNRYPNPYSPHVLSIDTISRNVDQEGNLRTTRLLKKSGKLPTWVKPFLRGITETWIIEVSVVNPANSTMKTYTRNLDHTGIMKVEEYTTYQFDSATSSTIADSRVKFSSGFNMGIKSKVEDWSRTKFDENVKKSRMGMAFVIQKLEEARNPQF
T3 sequence (O60200 1-86 partner): T2 sequence (O60200 1-86 partner)

Ups2Δ174–Mdm35 = target: T4, Ups2Δ174–Mdm35 (Saccharomyces cerevisiae, UniProt P35200); details: labelled compound, 50 nM complex, 12.5 µM donor and 50 µM acceptor liposomes, pH 7.4, 25 °C
T4 construct: gene UPS2; N-His Ups2 truncated after W174, with Mdm35, E. coli Rosetta-gami2; with Mitochondrial distribution and morphology protein 35
T4 sequence (P35200 1-174): T2 sequence (P35200 1-174)
T4 sequence (O60200 1-86 partner): T2 sequence (O60200 1-86 partner)

Ups1–Mdm35 [3] = target: T5, Ups1–Mdm35 (Saccharomyces cerevisiae, UniProt Q05776, E108D); details: labelled compound; 50 nM complex, 12.5 µM donor and 50 µM acceptor liposomes, pH 7.4, 20 °C
T5 construct: N-terminally His-tagged Ups1 with Mdm35, E. coli S30 cell-free expression; heterodimer; with Mitochondrial distribution and morphology protein 35
T5 sequence (Q05776 1-175 E108D): T3 sequence (Q05776 1-175) with E108D
T5 sequence (O60200 1-86 partner): T2 sequence (O60200 1-86 partner)

PRELID1–TRIAP1 [4] = target: T6, PRELID1–TRIAP1 (Homo sapiens, UniProt Q9Y255, K58T); details: labelled compound; 120 nM complex, 12.5 µM donor and 50 µM acceptor liposomes, pH 7.4, 20 °C
T6 construct: N-His-tagged PRELID1 co-expressed with TRIAP1 from pETDuet-1 in E. coli; heterodimer

Ups1–Mdm35 [5] = target: T7, Ups1–Mdm35 (Saccharomyces cerevisiae, UniProt Q05776, K58V); details: labelled compound; 50 nM complex, 12.5 µM donor and 50 µM acceptor liposomes, pH 7.4, 20 °C
T7 construct: N-terminally His-tagged Ups1 with Mdm35, E. coli S30 cell-free expression; heterodimer; with Mitochondrial distribution and morphology protein 35
T7 sequence (Q05776 1-175 K58V): T3 sequence (Q05776 1-175) with K58V
T7 sequence (O60200 1-86 partner): T2 sequence (O60200 1-86 partner)

PRELID1–TRIAP1 [6] = target: T8, PRELID1–TRIAP1 (Homo sapiens, UniProt Q9Y255, K58V); details: labelled compound; 120 nM complex, 12.5 µM donor and 50 µM acceptor liposomes, pH 7.4, 20 °C
T8 construct: N-His-tagged PRELID1 co-expressed with TRIAP1 from pETDuet-1 in E. coli; heterodimer
T8 sequence (Q9Y255 whole entry K58V): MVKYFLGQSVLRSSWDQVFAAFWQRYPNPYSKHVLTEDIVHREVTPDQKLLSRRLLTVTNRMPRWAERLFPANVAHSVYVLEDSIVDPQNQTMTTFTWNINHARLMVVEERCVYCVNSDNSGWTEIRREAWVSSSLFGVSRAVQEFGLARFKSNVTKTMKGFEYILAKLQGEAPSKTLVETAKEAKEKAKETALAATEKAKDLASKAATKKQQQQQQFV
T8 sequence (O43715 whole entry partner): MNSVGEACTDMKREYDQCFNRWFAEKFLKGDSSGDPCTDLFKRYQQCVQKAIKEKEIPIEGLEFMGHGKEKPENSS

T1 sequence (Q9Y255 whole entry): as the sequence (Q9Y255 whole entry K58V) above, with V58K counted along it
T1 sequence (O43715 whole entry partner): as the sequence (O43715 whole entry partner) above
T6 sequence (Q9Y255 whole entry K58T): as the sequence (Q9Y255 whole entry K58V) above, with V58T counted along it
T6 sequence (O43715 whole entry partner): as the sequence (O43715 whole entry partner) above

Structure (SMILES): CCCCCCCC/C=C\CCCCCCCC(=O)OC[C@H](COP(=O)(O)O)OC(=O)CCCCCCCCCCCNc1ccc([N+](=O)[O-])c2nonc12 [NBD-PA]
- liposome lipid transfer, NBD dequenching (PRELID1–TRIAP1 [1]): While efficiently mediating the transfer of PA, PRELID1 showed a low PS transfer activity
- liposome lipid transfer, NBD dequenching (Ups2 loop-swap variant): we observed efficient PA transport by the loop-swap variant of Ups2
- liposome lipid transfer, NBD dequenching (Ups1–Mdm35 [2]; 12.5 nM complex): PA transfer of wildtype (WT) and mutant Ups1–Mdm35 complexes in vitro
- liposome lipid transfer, NBD dequenching (Ups2Δ174–Mdm35; inefficient substrate): Ups2–Mdm35 complexes transferred PA only inefficiently when compared to PS

Structure (SMILES): CCCCCCCC/C=C\CCCCCCCC(=O)OC[C@H](COP(=O)(O)OC[C@H](N)C(=O)O)OC(=O)CCCCCCCCCCCNc1ccc([N+](=O)[O-])c2nonc12 [NBD-PS]
- liposome lipid transfer, NBD dequenching (Ups1–Mdm35 [3]): The mutations K58V or E108D in Ups1 increased PS transport
- liposome lipid transfer, NBD dequenching (PRELID1–TRIAP1 [1]; 120 nM complex, low activity): PRELID1 showed a low PS transfer activity, similar to Ups1
- liposome lipid transfer, NBD dequenching (Ups2 loop-swap variant): its ability to transfer PS was significantly reduced
- liposome lipid transfer, NBD dequenching (PRELID1–TRIAP1 [4]): substitution of K58 by valine or threonine substantially increased the ability of PRELID1
- liposome lipid transfer, NBD dequenching (Ups1–Mdm35 [5]): The mutations K58V or E108D in Ups1 increased PS transport
- liposome lipid transfer, NBD dequenching (Ups1–Mdm35 [2]; 50 nM complex, inefficient substrate): Ups1–Mdm35 complexes transferred PS only inefficiently when compared to PA
- liposome lipid transfer, NBD dequenching (PRELID1–TRIAP1 [6]): substitution of K58 by valine or threonine substantially increased the ability of PRELID1
- liposome lipid transfer, NBD dequenching (Ups2Δ174–Mdm35): PS transfer by Ups2 and loop-swap variant
